Laboratory results from patent publication US20250320227A1, “MACROCYCLIC OREXIN RECEPTOR AGONISTS AND USES THEREOF” (Jazz Pharmaceuticals Ireland Limited, priority 2022, published 2025).

Target: T1, human recombinant OX2 (hOX2) receptors expressed in CHO cells (Homo sapiens, UniProt O43614)
T1 construct: host or cells: CHO cells (hOX2-CHO)
T1 sequence (O43614 1-444): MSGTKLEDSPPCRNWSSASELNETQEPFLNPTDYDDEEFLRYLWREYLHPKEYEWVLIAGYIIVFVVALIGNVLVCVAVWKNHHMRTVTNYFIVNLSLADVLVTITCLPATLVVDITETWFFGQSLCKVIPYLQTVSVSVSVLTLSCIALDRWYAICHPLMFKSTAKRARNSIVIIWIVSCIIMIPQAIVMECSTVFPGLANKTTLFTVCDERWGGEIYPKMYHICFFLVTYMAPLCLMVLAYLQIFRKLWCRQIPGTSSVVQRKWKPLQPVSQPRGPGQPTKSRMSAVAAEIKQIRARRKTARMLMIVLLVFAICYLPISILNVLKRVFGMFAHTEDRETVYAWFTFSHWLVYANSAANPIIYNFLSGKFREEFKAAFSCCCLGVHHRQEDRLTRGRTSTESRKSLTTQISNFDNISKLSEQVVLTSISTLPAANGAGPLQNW
Assay: IP-1 accumulation assay (IP-One HTRF) in hOX2-CHO cells
Assay type: cell-based
Conditions: 60 min incubation at 37° C., mean of at least two independent experiments, read-out: EC50_OX2R Category
Method: The accumulation of Inositol-1 Monophosphate (IP-1) was measured using IP-One HTRF® Terbium cryptate based assay (Cisbio) in human recombinant OX1 (hOX1) and at OX2 (hOX2) receptors expressed in CHO cells (DiscoverX) according to the manufacturer's instructions for cells tested in suspension.
hOX1-CHO and hOX2-CHO cells were seeded into white 384-well plates at a density of 20,000 cells/well in Hank's Balanced Salt Solution (HBSS) containing 20 mM HEPES pH 7.4, 50 mM, LiCl and 0.1% and Bovine Serum Albumin (BSA).
Compounds of disclosure were tested in an 11 points concentration response curve (CRC) serially diluted in neat DMSO at 200 fold concentrations and added by Echo acoustic liquid handling (Labcyte) to the cells (0.5% DMSO final in the assay). After 60 min of incubation at 37° C. detection reagents, IP1-d2 tracer and anti-IP1-cryptate were diluted in lysis buffer according to the manufacturer's descriptions and added to the cells.
Following 60 min incubation at room temperature, time-resolved fluorescence (HTRF) was measured at 615 nm and 665 nm by Envision Multilabel reader (Perkin Elmer) and the HTRF ratio (A665/A615×10^4) was calculated.
The IP-1 accumulation response was expressed as percentage of the maximal OX-A response.
Curve fitting and EC50 estimations were carried out using a four-parameter logistic model using XLfit Software. Mean data of EC50 are calculated from at least two independent experiments performed in duplicates

Row | SMILES | EC50 [nM]
1 | O=C1COC[C@@]2(CCN3C(=O)CCOc4ccccc4[C@H]4CC[C@H](CC4)OC[C@H]32)N1 (single isomer, unassigned) [Example 1a] | < 100
2 | C[C@H]1CC(=O)N2CC[C@]3(COCC(=O)N3)[C@H]2CO[C@H]2CC[C@H](CC2)c2ccccc2O1 (single isomer, unassigned) [Example 4a] | > 10000
3 | C[C@H]1CC(=O)N2CC[C@@]3(COCC(=O)N3)[C@@H]2CO[C@H]2CC[C@H](CC2)c2ccccc2O1 (single isomer, unassigned) [Example 4b, (1′s, 3S,9′S,16′R,19′s)-9′-methyl-8′,18′-dioxa-12′-azaspiro[morpholine-3,15′-tetracyclo[17.2.2.0^2,70.0^12,16]tricosane]-2′(7′),3′,5′-triene-5,11′-dione] | 100 to 1000
4 | C[C@@H]1CC(=O)N2CC[C@@]3(COCC(=O)N3)[C@@H]2CO[C@H]2CC[C@H](CC2)c2ccccc2O1 (single isomer, unassigned) [Example 4c] | 100 to 1000
5 | C[C@@H]1COc2ccccc2[C@H]2CC[C@H](CC2)OC[C@H]2N(CC[C@]23COCC(=O)N3)C1=O (single isomer, unassigned) [Example 5a] | > 10000
6 | O=C1COC[C@@]2(CCN3C(=O)CCOc4cccc(F)c4[C@H]4CC[C@H](CC4)OC[C@H]32)N1 (single isomer, unassigned) [Example 10a] | < 100
7 | O=C1COC[C@]2(CCN3C(=O)CCOc4cccc(F)c4[C@H]4CC[C@H](CC4)OC[C@@H]32)N1 (single isomer, unassigned) [Example 10b] | > 10000
8 | C[C@@H]1C[C@@]2(COCC(=O)N2)[C@@H]2CO[C@H]3CC[C@H](CC3)c3cccc(F)c3OCC(=O)N12 (single isomer, unassigned) [Example 15a] | < 100
9 | C[C@@H]1C[C@]2(COCC(=O)N2)[C@H]2CO[C@H]3CC[C@H](CC3)c3cccc(F)c3OCC(=O)N12 (single isomer, unassigned) [Example 15b] | 1000 to 10000
10 | C[C@@H]1C[C@@]2(COCC(=O)N2)[C@@H]2CO[C@H]3CC[C@H](CC3)c3cc(F)cc(F)c3OCC(=O)N12 (single isomer, unassigned) [Example 16a] | < 100
11 | C[C@@H]1C[C@]2(COCC(=O)N2)[C@H]2CO[C@H]3CC[C@H](CC3)c3cc(F)cc(F)c3OCC(=O)N12 (single isomer, unassigned) [Example 16b] | > 10000
12 | C[C@@H]1C[C@]2(COCC(=O)N2)[C@H]2CO[C@H]3CC[C@H](CC3)c3cc(F)ccc3OCC(=O)N12 (single isomer, unassigned) [Example 18b] | > 10000
13 | C[C@@H]1C[C@@]2(COCC(=O)N2)[C@@H]2CO[C@H]3CC[C@H](CC3)c3ccc(F)cc3OCC(=O)N12 (single isomer, unassigned) [Example 19a] | < 100
14 | C[C@@H]1C[C@@]2(COCC(=O)N2)[C@@H]2CO[C@H]3CC[C@H](CC3)c3cccc(Cl)c3OCC(=O)N12 (single isomer, unassigned) [Example 20a] | 1000 to 10000
15 | C[C@@H]1C[C@@]2(COCC(=O)N2)[C@@H]2CO[C@H]3CC[C@H](CC3)c3cc(Cl)ccc3OCC(=O)N12 (single isomer, unassigned) [Example 21a] | 100 to 1000
16 | C[C@@H]1C[C@]2(COCC(=O)N2)[C@H]2CO[C@H]3CC[C@H](CC3)c3cc(Cl)ccc3OCC(=O)N12 (single isomer, unassigned) [Example 21b] | > 10000
17 | Cc1ccc2c(c1)[C@H]1CC[C@H](CC1)OC[C@H]1N(C(=O)CO2)[C@H](C)C[C@]12COCC(=O)N2 (single isomer, unassigned) [Example 22b] | > 10000
18 | C[C@@H]1C[C@@]2(COCC(=O)N2)[C@@H]2CO[C@H]3CC[C@H](CC3)c3cccnc3OCC(=O)N12 (single isomer, unassigned) [Example 23a] | 100 to 1000
19 | C[C@@H]1C[C@]2(COCC(=O)N2)[C@H]2CO[C@H]3CC[C@H](CC3)c3cccc(F)c3OCCC(=O)N12 (single isomer, unassigned) [Example 24b] | 100 to 1000
20 | O=C1COC[C@@]2(CCCN3C(=O)COc4ccccc4[C@H]4CC[C@H](CC4)OC[C@H]32)N1 (single isomer, unassigned) [Example 32a] | < 100
21 | O=C1COC[C@]2(CCCN3C(=O)COc4ccccc4[C@H]4CC[C@H](CC4)OC[C@@H]32)N1 (single isomer, unassigned) [Example 32b] | > 10000
22 | O=C1COC[C@@]2(CCCN3C(=O)CCOc4ccccc4[C@H]4CC[C@H](CC4)OC[C@H]32)N1 (single isomer, unassigned) [Example 33a] | < 100
23 | O=C1COC[C@]2(CCCN3C(=O)CCOc4ccccc4[C@H]4CC[C@H](CC4)OC[C@@H]32)N1 (single isomer, unassigned) [Example 33b] | 100 to 1000
24 | CC1Oc2ccccc2[C@H]2CC[C@H](CC2)OC[C@@H]2N(CCC[C@@]23COCC(=O)N3)C1=O (single isomer, unassigned) [Example 35a] | < 100
25 | CC1Oc2ccccc2[C@H]2CC[C@H](CC2)OC[C@H]2N(CCC[C@]23COCC(=O)N3)C1=O (single isomer, unassigned) [Example 35b] | > 10000
26 | O=C1COC[C@@]2(CCCN3C(=O)C4(CC4)COc4ccccc4[C@H]4CC[C@H](CC4)OC[C@H]32)N1 (single isomer, unassigned) [Example 37a, (1′s,16′S,17′R,20′s)-dispiro[cyclopropane-1,10′-[8,19]dioxa-[12]azatetracyclo[18.2.2.0^2,70.0^12,17]tetracosane-16′,3″-morpholine]-2′(7′),3′,5′-triene-5″,11′-dione] | < 100
27 | O=C1COC[C@@]2(CCCN3C(=O)COc4c(F)cccc4[C@H]4CC[C@H](CC4)OC[C@H]32)N1 (single isomer, unassigned) [Example 38a] | < 100

Other lines, results leading:

Row | EC50 [nM] | SMILES
28 | > 10000 | O=C1COC[C@]2(CCN3C(=O)CCOc4ccccc4[C@H]4CC[C@H](CC4)OC[C@@H]32)N1 (single isomer, unassigned) [Example 1b]
29 | > 10000 | C[C@@H]1CC(=O)N2CC[C@]3(COCC(=O)N3)[C@H]2CO[C@H]2CC[C@H](CC2)c2ccccc2O1 (single isomer, unassigned) [Example 4d]
30 | > 10000 | C[C@H]1COc2ccccc2[C@H]2CC[C@H](CC2)OC[C@H]2N(CC[C@]23COCC(=O)N3)C1=O (single isomer, unassigned) [Example 5b]
31 | < 100 | C[C@@H]1C[C@@]2(COCC(=O)N2)[C@@H]2CO[C@H]3CC[C@H](CC3)c3ccccc3OCCC(=O)N12 (single isomer, unassigned) [Example 13a]
32 | 100 to 1000 | C[C@@H]1C[C@]2(COCC(=O)N2)[C@H]2CO[C@H]3CC[C@H](CC3)c3ccccc3OCCC(=O)N12 (single isomer, unassigned) [Example 13b]
33 | 1000 to 10000 | C[C@@H]1C[C@]2(COCC(=O)N2)[C@H]2CO[C@H]3CC[C@H](CC3)c3c(F)cccc3OCC(=O)N12 (single isomer, unassigned) [Example 17b]
34 | < 100 | C[C@@H]1C[C@@]2(COCC(=O)N2)[C@@H]2CO[C@H]3CC[C@H](CC3)c3cc(F)ccc3OCC(=O)N12 (single isomer, unassigned) [Example 18a]
35 | > 10000 | C[C@@H]1C[C@]2(COCC(=O)N2)[C@H]2CO[C@H]3CC[C@H](CC3)c3cccc(Cl)c3OCC(=O)N12 (single isomer, unassigned) [Example 20b]
36 | < 100 | Cc1ccc2c(c1)[C@H]1CC[C@H](CC1)OC[C@@H]1N(C(=O)CO2)[C@H](C)C[C@@]12COCC(=O)N2 (single isomer, unassigned) [Example 22a]
37 | 1000 to 10000 | C[C@@H]1C[C@]2(COCC(=O)N2)[C@H]2CO[C@H]3CC[C@H](CC3)c3cccnc3OCC(=O)N12 (single isomer, unassigned) [Example 23b]
38 | 1000 to 10000 | O=C1COC[C@]2(CCCN3C(=O)C4(CC4)COc4ccccc4[C@H]4CC[C@H](CC4)OC[C@@H]32)N1 (single isomer, unassigned) [Example 37b, (1′s,16′R,17′S,20′s)-dispiro[cyclopropane-1,10′-[8,19]dioxa-[12]azatetracyclo[18.2.2.0^2,70.0^12,17]tetracosane-16′,3″-morpholine]-2′(7′),3′,5′-triene-5″,11′-dione]
39 | 1000 to 10000 | O=C1COC[C@]2(CCCN3C(=O)COc4c(F)cccc4[C@H]4CC[C@H](CC4)OC[C@@H]32)N1 (single isomer, unassigned) [Example 38b]
40 | > 10000 | O=C1COC[C@@]2(CCCN3C(=O)COc4c(F)cc(F)cc4[C@H]4CC[C@H](CC4)OC[C@H]32)N1 (single isomer, unassigned) [Example 39a]
